Test results from PMC3463587, “A Series of Beta-Carboline Derivatives Inhibit the Kinase Activity of PLKs” (PLoS ONE, 2012).

Legend:
PC3 cells = assay: MTT cell proliferation assay, PC3; format: cell-based; details: Homo sapiens, PC-3, 48 hr
Source text: BI2536 was purchased from Selleck (Selleck, USA).

CDK1/cyclinB(h) = CDK1/cyclinB(h) (Homo sapiens, UniProt P06493); assay: In vitro kinase assay CDK1/cyclinB (33P-ATP); format: biochemical
Method: The inhibition of PLK1 kinase activity was assessed using the Cyclex PLK1 Assay/Inhibitor Screening Kit (MBL International Corporation, Japan). The kit includes anti-phospho-threonine polyclonal antibody (PPT-07) and peroxidase coupled anti-rabbit IgG antibody as a reporter in a 96-well ELSIA format. Compounds were used at the concentrations from 10^− ^3 to 10^2 µg/ml and the absorbance was determined at 450 nm. A similar protocol was used to determine the kinase inhibition for PLK2, PLK3, Aurora A and Aurora B. The kinase activity of CDK1/cyclinB and CDK2/cyclinE was analyzed in the presence of serially diluted inhibitors. For each reaction, 20 ng of recombinant kinase was used and […] casein from bovine milk (Sigma) was added as the kinase substrate. The kinase reaction buffer contains 8 mM MOPS pH7.0, 0.2 mM EDTA, 0.1 mg/ml histone H1, 10 mM and MgAcetace and [γ^− ^33P-ATP] (500 cpm/pmol). The reaction was initiated by adding the MgATP mix. After incubation for 40 minutes at room temperature, the reaction was stopped by the addition of 3% phosphoric acid solution. We spotted 10 µl of the reaction mixture onto a P30 filtermat and washed three times for 5 min with 75 mM phosphoric acid and once with methanol prior to drying and scintillation counting.

HeLa cells = assay: FITC-Annexin V/PI apoptosis assay, HeLa; format: cell-based, human
Source text: Staining with Annexin V–FITC and propidium iodide (PI) is commonly used to distinguish apoptotic, necrotic, and dead cells. PI is impermeant to live cells and apoptotic cells at early stages, but it stains dead cells and apoptotic cells at late stages through its binding to the nucleic acids. Apoptotic cells in early or late stages are stained positively for Annexin V-FITC that binds to phosphotidylserine. We used FACS analysis to determine the proportion of HeLa cells positive for Annexin V-FITC (FITC), PI, or both. The HeLa cells with PI^−/PI^+ FITC^+ were counted as apoptotic cells (Figure 5). […] However, 16.19% (3.96+12.23) of HeLa cells became FITC positive after treatment with 1.05 µM DH281 for 48 hr. The treatment with 5.25 µM DH281 induced apoptosis among 89.6% (89.51+0.09) of HeLa cells (Table 5). […] In contrast to HeLa cells, the induction of apoptosis by DH281 was much less efficient in non-cancer MRC5 cells (Table 5). Therefore, we conclude that the treatment with compounds DH281, DH285 and DH287 induces substantial apoptosis in HeLa cells, but non-cancer MRC5 cells are much less sensitive to the treatment. The distinct apoptotic responses of HeLa and MRC5 cells to beta-carboline compounds could explain the selectivity of PLK1 inhibitors toward cancer cells.
HeLa cells were either treated with 0, 0.21, 1.05 and 5.25 µM of DH281, DH285 and DH287 for 48 hr, or treated with 1.21 µM compounds for 24, 48 and 72 hr, while MRC5 cells were exposed to compounds at 0, 0.21, 1.05, and 5.25 µM for 48 hr. The cultured cells were harvested, washed three times with PBS, and resuspended in 500 µl binding buffer (10 mM Hepes/sodium hydroxide (pH7.4), 140 mM sodium chloride, and 2.5 mM CaCl2). Then 5 µl FITC-labeled Annexin V (Zhongshan JinQiao Biotechnology Ltd., Beijing) was added and the cells were incubated in the dark for 10 min. We added 5 µl of propidium iodide (PI) (10 µg/ml in binding buffer) to each sample before flow cytometry analysis.

[1] = tested on: Wee1 protein levels in HeLa cells; assay: Wee1 protein level (Western blotting); format: cell-based, human; details: 1.21 µM, 24 hr, compared to control cells
Method: (§1) As the inhibitory kinase for cyclin-dependent kinase (CDK), Wee1 is one of the substrates of PLK1 and this phosphorylation stimulates Wee1 degradation. We expect that the inhibition of PLK1 impairs the phosphorylation of Wee1, thereby resulting in elevated Wee1 protein levels. To test this possibility, we examined the protein levels of Wee1 in HeLa cells after treatment with 1.21 µM beta-carboline compounds for 24 hr. […] PLK1 also phosphorylates cyclin B1 and this phosphorylation promotes the nuclear localization of cyclin B1 [36]. After treatment with these beta-carboline compounds, a slight increase of cyclin B1 protein was observed (Figure 6B), and this increase could be a consequence of accumulation of cells in G2/M phase. However, the change of cyclin B1 levels is much less significant compared to the increase of Wee1 levels after treatment with these compounds.
(§2) HeLa cells were incubated with or without 1.21 µM DH281, DH285 and DH287 for 24 hr. The cells were washed twice with cold 1×PBS and lysed in RAPI buffer (Applygen technologies Inc.) for 30 min and centrifuged at 14,000 rpm for 20 min at 4°C. We separated 15 µl of total protein (1 µg/ µl) with 12% SDS-PAGE gels and transferred the proteins to PVDF membrane. […] The protein bands were detected using ECL System (Piscataway, New Jersey, USA). […]

[2] = tested on: four cancer cell lines (HepG2, MG63, HeLa and PC3); assay: Growth inhibition of four cancer cell lines; format: cell-based, Human
Source text: In order to find more efficient antitumor small molecules targeting PLK1, we synthesized additional 18 beta-carboline compounds and the structures of these compounds are shown in Figure 1. The growth inhibition of four cancer cell lines (HepG2, MG63, HeLa and PC3) by these compounds was examined. […] We selected DH281, DH285 and DH287 for further studies.

[3] = tested on: cyclin B1 protein in HeLa cells; assay: Cyclin B1 protein level (Western blotting, FACS); format: cell-based, human; details: 1.21 µM, 24 hr
Method: as §1, §2

Chain of CDK1/cyclinB(h) (P06493 whole entry): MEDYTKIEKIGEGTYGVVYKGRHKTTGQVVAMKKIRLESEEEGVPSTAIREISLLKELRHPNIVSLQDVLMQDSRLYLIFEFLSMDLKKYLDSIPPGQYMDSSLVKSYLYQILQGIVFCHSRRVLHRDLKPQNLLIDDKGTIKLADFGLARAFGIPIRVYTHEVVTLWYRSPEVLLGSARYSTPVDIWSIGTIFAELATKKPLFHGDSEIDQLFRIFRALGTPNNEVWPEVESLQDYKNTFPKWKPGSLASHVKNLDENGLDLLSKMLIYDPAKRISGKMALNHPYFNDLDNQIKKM
Chain of CDK1/cyclinB(h) (P14635 whole entry partner): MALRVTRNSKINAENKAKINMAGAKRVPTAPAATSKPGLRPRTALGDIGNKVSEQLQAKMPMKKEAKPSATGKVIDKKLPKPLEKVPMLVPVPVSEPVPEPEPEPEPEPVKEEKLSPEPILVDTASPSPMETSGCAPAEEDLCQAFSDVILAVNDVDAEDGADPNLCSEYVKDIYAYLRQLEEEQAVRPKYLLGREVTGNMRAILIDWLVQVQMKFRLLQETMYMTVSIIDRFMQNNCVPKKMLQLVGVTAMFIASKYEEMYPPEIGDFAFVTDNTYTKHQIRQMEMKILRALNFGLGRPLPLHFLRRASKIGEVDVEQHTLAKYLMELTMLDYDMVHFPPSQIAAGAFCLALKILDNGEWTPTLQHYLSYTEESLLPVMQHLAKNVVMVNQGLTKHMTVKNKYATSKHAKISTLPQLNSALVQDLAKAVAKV

| Structure (SMILES) | IC50 (PC3 cells) | IC50 (CDK1/cyclinB(h)) | PI+ FITC+ (late apoptotic cells) (HeLa cells; 0.21 µM, 48 hr) | PI+ FITC− (dead cells) (HeLa cells; 0.21 µM, 48 hr) | PI− FITC+ (early apoptotic cells) (HeLa cells; 0.21 µM, 48 hr) | PI− FITC− (live cells) (HeLa cells; 0.21 µM, 48 hr) | PI+ FITC+ (late apoptotic cells) (HeLa cells; 1.05 µM, 48 hr) | PI+ FITC− (dead cells) (HeLa cells; 1.05 µM, 48 hr) | PI− FITC+ (early apoptotic cells) (HeLa cells; 1.05 µM, 48 hr) | PI− FITC− (live cells) (HeLa cells; 1.05 µM, 48 hr) | PI+ FITC+ (late apoptotic cells) (HeLa cells; 1.21 µM, 24 hr) | PI+ FITC− (dead cells) (HeLa cells; 1.21 µM, 24 hr) | PI− FITC+ (early apoptotic cells) (HeLa cells; 1.21 µM, 24 hr) | PI− FITC− (live cells) (HeLa cells; 1.21 µM, 24 hr) | PI+ FITC+ (late apoptotic cells) (HeLa cells; 1.21 µM, 48 hr) | PI+ FITC− (dead cells) (HeLa cells; 1.21 µM, 48 hr) | PI− FITC+ (early apoptotic cells) (HeLa cells; 1.21 µM, 48 hr) | PI− FITC− (live cells) (HeLa cells; 1.21 µM, 48 hr) | PI+ FITC+ (late apoptotic cells) (HeLa cells; 1.21 µM, 72 hr) | PI− FITC+ (early apoptotic cells) (HeLa cells; 1.21 µM, 72 hr) | other results |
| --- | --- | --- | --- | --- | --- | --- | --- | --- | --- | --- | --- | --- | --- | --- | --- | --- | --- | --- | --- | --- | --- |
| Cc1c2c(cc[n+]1Cc1ccccc1)c1ccc(OCc3ccccc3)cc1n2Cc1ccccc1 [DH287] | 2860 ± 190 nM | 39.4 µM | 2.16% | 3.48% | 1.12% | 93.25% | 5.20% | 9.81% | 7.20% | 77.8% | 10.88% | 3.56% | 10.39% | 75.17% | 8.31% | 7.05% | 25.70% | 58.94% | 1.19% | 55.98% | PI− FITC− (live cells) (HeLa cells; 1.21 µM, 72 hr): 38.27%; PI+ FITC+ (late apoptotic cells) (HeLa cells; 5.25 µM, 48 hr): 5.58%; PI+ FITC− (dead cells) (HeLa cells; 5.25 µM, 48 hr): 8.71%; PI− FITC+ (early apoptotic cells) (HeLa cells; 5.25 µM, 48 hr): 65.36%; PI− FITC− (live cells) (HeLa cells; 5.25 µM, 48 hr): 20.35%; Wee1 protein level [1]: high levels of Wee1 protein; antitumor activity (growth inhibition) [2]: very strong growth inhibition; cyclin B1 protein level [3]: did not show a significant increase of cyclin B1 protein |
| Cc1c2c(cc[n+]1Cc1ccccc1)c1ccc(OCc3ccc(F)cc3)cc1n2CCCc1ccccc1 [DH281] | 940 ± 230 nM | 42.1 µM | 3.22% | 3.24% | 0.97% | 92.57% | 3.96% | 10.22% | 12.23% | 73.59% | 10.65% | 2.52% | 1.42% | 85.41% | 8.91% | 3.31% | 16.20% | 71.58% | 5.97% | 39.54% | FITC positive (apoptotic) cells, early + late (HeLa cells; 1.05 µM, 48 hr): 16.19%; PI+ FITC− (dead cells) (HeLa cells; 1.21 µM, 72 hr): 1.41%; PI− FITC− (live cells) (HeLa cells; 1.21 µM, 72 hr): 53.08%; FITC positive (apoptotic) cells, early + late (HeLa cells; 5.25 µM, 48 hr): 89.6%; PI+ FITC+ (late apoptotic cells) (HeLa cells; 5.25 µM, 48 hr): 0.09%; PI+ FITC− (dead cells) (HeLa cells; 5.25 µM, 48 hr): 0.37%; PI− FITC+ (early apoptotic cells) (HeLa cells; 5.25 µM, 48 hr): 89.51%; PI− FITC− (live cells) (HeLa cells; 5.25 µM, 48 hr): 10.03%; Wee1 protein level [1]: high levels of Wee1 protein; antitumor activity (growth inhibition) [2]: very strong growth inhibition; cyclin B1 protein level [3]: did not show a significant increase of cyclin B1 protein |
